Assay results from patent publication US10183944B2 (Asana Biosciences, LLC, priority 2011, dated 2019).
Counter-ions that a name gives are not always drawn.

Key:
JAK2 = JAK2 (Homo sapiens (Human), UniProt O60674); test: Inhibition of enzymatic JAK2 kinase activity (TR-FRET); type: biochemical; details: read-out: IC50 JAK
Description: The objective of this assay was to screen compounds in a Time-resolved fluorescence resonance energy transfer (TR-FRET) Enzymatic assay method for their potential to inhibit JAK2 (Janus kinase) activity.
TR-FRET assays are homogeneous proximity assays where Eu-labeled antiphosphotyrosine antibody binds to the phosphorylated substrates labeled with Ulight fluorescence acceptor. Eu can transfer energy to Ulight accepter in the complex and the interaction of two dye-labeled binding partners is detected by the energy transfer between a donor and an acceptor dye, and the subsequent light emission by the acceptor dye. The intensity of the light emission is proportional to the level of Ulight peptide phosphorylation.
Two μL of 10% DMSO in blank, substrate control and positive control wells and 2 μL of test compound in test wells was added. Thirteen μL of assay buffer in blank and substrate control wells and 13 μL of Enzyme buffer mix in positive and test wells was added. The reaction mixture was incubated for 30 minutes at RT on a plate shaker. Ultra Light-pGT substrate (5 μL) [poly Glu-Tyr (4:1) labeled with U Light TM dye, a tyrosine kinase substrate] and ATP mix was added to all wells. The reaction plate was incubated for 60 minutes at RT on a plate shaker. The reaction was stopped by adding 40 mM EDTA (10 μL) in buffer. Ten μL of antibody was added to all the wells. The plate was read in a Wallac® 1420 Multilabel Counter Victor 3 instrument (Ex: 340 nm Em: 615 & 665 nm) The following calculations were made:
F@ 665 Value-Buffer blank
F@ 615 Value-Buffer blank
Ratio of F@665/F@615-Substrate Blank
% Activity=(Test Sample/Positive control)*100%
Inhibition=(100−% Activity)

[1] = biological target: Syk (356-635 amino acids) catalytic domain (Homo sapiens (Human), UniProt P43405); test: Inhibition of enzymatic Syk kinase activity (radiometric); type: biochemical; details: read-out: IC50 Syk
Method in brief: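 Radiometric filter-binding format: 32P transfer from γ-32P-ATP onto pG4T, scintillation-counted after acid washes of P81 paper. Syk kinase domain (356-635), 0.035–7.5 ng per reaction, was exposed to compound for 30 minutes at room temperature before a 10-minute, 30° C. reaction with ATP (100 μM stock). Inhibition derived from counts with versus without compound.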

Sequence of JAK2 (O60674 808-1132): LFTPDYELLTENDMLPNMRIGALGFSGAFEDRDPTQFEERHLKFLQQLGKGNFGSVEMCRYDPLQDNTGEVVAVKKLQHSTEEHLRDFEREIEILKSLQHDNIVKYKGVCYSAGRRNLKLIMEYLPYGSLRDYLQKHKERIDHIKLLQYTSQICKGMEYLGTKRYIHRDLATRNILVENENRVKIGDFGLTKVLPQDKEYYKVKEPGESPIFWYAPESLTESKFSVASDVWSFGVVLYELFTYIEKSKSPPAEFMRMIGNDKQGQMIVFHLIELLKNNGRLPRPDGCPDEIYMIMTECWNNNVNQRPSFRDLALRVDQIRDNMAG

Row | IC50 (JAK2) | IC50 [1] | Compound
1 | < 50 nM | < 50 nM | N#CCC1CCN(c2nc(Nc3ccc(N4CCCC(CCO)C4)cc3)c3c(=O)[nH]ncc3n2)CC1 (stereo not shown) [Example 286, 2-(1-(4-((4-(3-(2-hydroxyethyl)piperidin-1-yl)phenyl)amino)-5-oxo-5,6-dihydropyrimido[4,5-d]pyridazin-2-yl)piperidin-4-yl)acetonitrile]
2 | < 10 nM | < 50 nM | O=c1[nH]ncc2nc(N3CCCCCC3)nc(Nc3ccc(N4CCC(F)CC4)cc3)c12 [Example 289, 2-(azepan-1-yl)-4-((4-(4-fluoropiperidin-1-yl)phenyl)amino)pyrimido[4,5-d]pyridazin-5(6H)-one]
3 | < 100 nM | < 50 nM | O=c1[nH]ncc2nc(-c3ccccc3)nc(Nc3ccc(CN4CCC5(CC4)COC5)cc3)c12 [Example 23, 4-(4-(2-oxa-7-azaspiro[3.5]nonan-7-ylmethyl)phenylamino)-2-phenylpyrimido[4,5-d]pyridazin-5(6H)-one]
4 | < 10 nM | < 50 nM | O=c1[nH]ncc2nc(N3CCCCCC3)nc(Nc3ccc(CCCO)cc3)c12 [Example 308, 2-(azepan-1-yl)-4-((4-(3-hydroxypropyl)phenyl)amino)pyrimido[4,5-d]pyridazin-5(6H)-one]
5 | < 10 nM | < 50 nM | N#CCC1CCN(c2nc(Nc3ccc(OC4CCN(CC(=O)O)CC4)cc3)c3c(=O)[nH]ncc3n2)CC1 [Example 262, 2-(4-(4-((2-(4-(cyanomethyl)piperidin-1-yl)-5-oxo-5,6-dihydropyrimido[4,5-d]pyridazin-4-yl)amino)phenoxy)piperidin-1-yl)acetic acid]
6 | < 10 nM | < 50 nM | CC(C)(O)C1CCN(c2ccc(Nc3nc(N4CCCCCC4)nc4cn[nH]c(=O)c34)cc2)CC1 [Example 139, 2-(azepan-1-yl)-4-((4-(4-(2-hydroxypropan-2-yl)piperidin-1-yl)phenyl)amino)pyrimido[4,5-d]pyridazin-5(6H)-one]
7 | < 100 nM | < 50 nM | O=C(O)CC1CCC(c2ccc(Nc3nc(-c4ccccc4)nc4cn[nH]c(=O)c34)cc2)CC1 (stereo not shown) [Example 87, 2-(4-(4-((5-oxo-2-phenyl-5,6-dihydropyrimido[4,5-d]pyridazin-4-yl)amino)phenyl)cyclohexyl)acetic acid]
8 | < 50 nM | < 50 nM | N#CCC1CCN(c2nc(Nc3ccc(N4CCC(CCF)CC4)cc3)c3c(=O)[nH]ncc3n2)CC1 [Example 299, 2-(1-(4-((4-(4-(2-fluoroethyl)piperidin-1-yl)phenyl)amino)-5-oxo-5,6-dihydropyrimido[4,5-d]pyridazin-2-yl)piperidin-4-yl)acetonitrile]
9 | < 50 nM | < 50 nM | O=C(O)CN1CCC(c2ccc(Nc3nc(-c4ccccc4)nc4cn[nH]c(=O)c34)cc2)CC1 [Example 86, 2-(4-(4-((5-oxo-2-phenyl-5,6-dihydropyrimido[4,5-d]pyridazin-4-yl)amino)phenyl)piperidin-1-yl)acetic acid]
10 | < 10 nM | < 10 nM | O=c1[nH]ncc2nc(N3CCCCCC3)nc(Nc3ccc(N4CCCN(CCO)CC4)cc3)c12 [Example 263, 2-(azepan-1-yl)-4-((4-(4-(2-hydroxyethyl)-1,4-diazepan-1-yl)phenyl)amino) pyrimido[4,5-d]pyridazin-5(6H)-one]
11 | < 50 nM | < 50 nM | CC(C)(C#N)C1CCN(c2nc(Nc3ccc(N4CCC(CC(=O)O)CC4)cc3)c3c(=O)[nH]ncc3n2)CC1 [Example 100, 2-(1-(4-((2-(4-(2-cyanopropan-2-yl)piperidin-1-yl)-5-oxo-5,6-dihydropyrimido[4,5-d]pyridazin-4-yl)amino)phenyl)piperidin-4-yl)acetic acid]
12 | < 10 nM | < 10 nM | O=C(O)C[C@H]1CC[C@H](c2ccc(Nc3nc(N4CCCCCC4)nc4cn[nH]c(=O)c34)cc2)CC1 [Example 129, 2-((1R,4R)-4-(4-((2-(azepan-1-yl)-5-oxo-5,6-dihydropyrimido[4,5-d]pyridazin-4-yl)amino)phenyl)cyclohexyl)acetic acid]
13 | < 10 nM | < 10 nM | O=c1[nH]ncc2nc(N3CCCCCC3)nc(Nc3ccc(CCN4CCNCC4)cc3)c12 [Example 198, 2-(azepan-1-yl)-4-((4-(2-(piperazin-1-yl)ethyl)phenyl)amino)pyrimido[4,5-d]pyridazin-5(6H)-one]
14 | < 100 nM | < 100 nM | O=C(O)CN1CCN(c2ccc(Nc3nc(N4CCCCCC4)nc4cn[nH]c(=O)c34)cn2)CC1 [Example 144, 2-(4-(5-((2-(azepan-1-yl)-5-oxo-5,6-dihydropyrimido[4,5-d]pyridazin-4-yl)amino)pyridin-2-yl)piperazin-1-yl)acetic acid]
15 | < 50 nM | < 50 nM | N#CCC1CCN(c2nc(Nc3ccc4[nH]nnc4c3)c3c(=O)[nH]ncc3n2)CC1 [Example 335, 2-(1-(4-((1H-benzo[d][1,2,3]triazol-5-yl)amino)-5-oxo-5,6-dihydropyrimido[4,5-d]pyridazin-2-yl)piperidin-4-yl) acetonitrile]
16 | < 50 nM | < 100 nM | O=c1[nH]ncc2nc(N3CCCCCC3)nc(Nc3ccc(-c4nnn(CCO)n4)cc3)c12 [Example 222, 2-(azepan-1-yl)-4-((4-(2-(2-hydroxyethyl)-2H-tetrazol-5-yl)phenyl)amino) pyrimido[4,5-d]pyridazin-5(6H)-one]
17 | < 50 nM | < 50 nM | N#CCC1CCN(c2nc(Nc3ccc(N4CCC(CCCO)CC4)cc3)c3c(=O)[nH]ncc3n2)CC1 [Example 205, 2-(1-(4-((4-(4-(3-hydroxypropyl)piperidin-1-yl)phenyl)amino)-5-oxo-5,6-dihydropyrimido[4,5-d]pyridazin-2-yl)piperidin-4-yl)acetonitrile]
18 | < 10 nM | < 50 nM | O=c1[nH]ncc2nc(N3CCCCCC3)nc(Nc3ccc(N4CCCC(CCO)C4)cc3)c12 (stereo not shown) [Example 272, 2-(azepan-1-yl)-4-((4-(3-(2-hydroxyethyl)piperidin-1-yl)phenyl)amino) pyrimido[4,5-d]pyridazin-5(6H)-one]
19 | < 50 nM | < 50 nM | N#CCC1CCN(c2nc(Nc3ccc(OC4CCN(CCO)CC4)cc3)c3c(=O)[nH]ncc3n2)CC1 [Example 291, 2-(1-(4-((4-((1-(2-hydroxyethyl)piperidin-4-yl)oxy)phenyl)amino)-5-oxo-5,6-dihydropyrimido[4,5-d]pyridazin-2-yl)piperidin-4-yl)acetonitrile]
20 | < 10 nM | < 50 nM | N#CCN1CCN(c2ccc(Nc3nc(N4CCCCCC4)nc4cn[nH]c(=O)c34)cc2)CC1 [Example 206, 2-(4-(4-((2-(azepan-1-yl)-5-oxo-5,6-dihydropyrimido[4,5-d]pyridazin-4-yl)amino)phenyl)piperazin-1-yl) acetonitrile]
21 | < 50 nM | > 100 nM | N#CC1CCN(c2nc(Nc3ccc(CN4CCNCC4)cc3)c3c(=O)[nH]ncc3n2)CC1 [Example 56, 1-(5-oxo-4-((4-(piperazin-1-ylmethyl)phenyl)amino)-5,6-dihydropyrimido[4,5-d]pyridazin-2-yl)piperidine-4-carbonitrile hydrochloride]

Row | Compound | IC50 (JAK2) | IC50 [1]
22 | O=c1[nH]ncc2nc(N3CCCCCC3)nc(Nc3ccc(OCCN4CCC(CO)CC4)cc3)c12 [Example 203, 2-(azepan-1-yl)-4-((4-(2-(4-(hydroxymethyl)piperidin-1-yl)ethoxy)phenyl)amino)pyrimido[4,5-d]pyridazin-5(6H)-one] | < 10 nM | < 50 nM
23 | O=c1[nH]ncc2nc(N3CCCCCC3)nc(Nc3ccc(N4CCNCC4)nc3)c12 [Example 221, 2-(azepan-1-yl)-4-((6-(piperazin-1-yl)pyridin-3-yl)amino)pyrimido[4,5-d]pyridazin-5(6H)-one] | < 10 nM | < 50 nM
24 | O=c1[nH]ncc2nc(N3CCNCC3)nc(Nc3ccc(CN4CCNCC4)cc3)c12 [Example 32, 2-(piperazin-1-yl)-4-(4-(piperazin-1-ylmethyl)phenylamino)pyrimido[4,5-d]pyridazin-5(6H)-one dihydrochloride] | > 100 nM | < 100 nM
25 | CCN(CC)CCOc1ccc(Nc2nc(N3CCC(CC#N)CC3)nc3cn[nH]c(=O)c23)cc1 [Example 224, 2-(1-(4-((4-(2-(diethylamino)ethoxy)phenyl)amino)-5-oxo-5,6-dihydropyrimido[4,5-d]pyridazin-2-yl)piperidin-4-yl)acetonitrile] | < 50 nM | < 50 nM
26 | CC(C)N(CCOc1ccc(Nc2nc(N3CCCCCC3)nc3cn[nH]c(=O)c23)cc1)C(C)C [Example 188, 2-(azepan-1-yl)-4-((4-(2-(diisopropylamino)ethoxy)phenyl)amino) pyrimido[4,5-d]pyridazin-5(6H)-one] | < 50 nM | < 50 nM
